In patent US20150336889A1, “INDOLE DERIVATIVES, PHARMACEUTICAL COMPOSITIONS CONTAINING SUCH INDOLES AND THEIR USE AS DNA METHYLATION MODULATORS” (IKERCHEM, S.L., priority 2012, published 2015):
Counter-ions that a name gives are not always drawn.

Tests used:
Human DNMT1 = target: T1, Human DNMT1 (Homo sapiens, UniProt P26358); test: DNMT1 enzymatic activity inhibition, radioisotope-based 3H-SAM filter binding assay; assay type: biochemical; conditions: 1 μM SAM, 25 nM DNMT1, 0.005 mg/ml Poly(dI-dC), 30° C. 1 hour, 10-dose
T1 construct: a-a 2-1632, with N-terminal GST tag; GST (N)
Method: The inhibition of the enzymatic activity of DNMT1 was tested using low volume radioisotope-based assay which uses tritium-labeled AdoMet (^3H-SAM) as a methyl donor. Inhibitors diluted in DMSO were added by using acoustic technology (Echo550, Labcyte Inc. Sunnyvale, Calif.) into enzyme/substrate mixture in nano-liter range. The reaction was initiated by the addition of ^3H-SAM, and incubated at 30° C. for 1 hour. Total final methylations on the substrate poly(dI-dC) were detected by a filter binding approach. Data analysis was performed using GraphPad Prism software (La Jolla, Calif.) for IC50 curve fits.

MDA-MB-435 = test: Cancer cell growth inhibition, MDA-MB-435; assay type: cell-based; conditions: Homo sapiens; Melanoma, MDA-MB-435, cell viability, 72 h
Method: (§1) Cell culture-based assays were used to evaluate the ability of compounds of the invention to inhibit cancer cell growth inhibition.
(§2) Cells were obtained from the American Type Culture Collection (ATCC) and European Collection of Cell Cultures (ECACC).
(§3) Cells were thawed in their appropriate media plus supplements (see table below). Cells were passaged at confluence by washing once in HBSS cation-free followed by a 3 minutes incubation with trypsin ([0.5 μg/ml]/EDTA [0.2 μg/ml]) (Gibco-BRL, 15400054) solution in HBSS at 37° C. (except non-adherent cell lines), and transferred to their appropriate media plus supplements. Prior to seeding at defined cell concentration, cells were recovered in medium, centrifuged and taken up in medium, and counted.
(§4) Cells were plated at 3000/5000/10000 cells/well in 100 μl media in tissue culture 96 well plates (Cultek). After 24 h, media was supplemented by 100 μl/well of diluted IPDNs at 100 μM.
(§5) The Hexosaminidase assay was used for the adherent cell lines, whereas the AlamarBlue® assay was used for the non-adherent cell lines.
(§6) Dose-response curves were generated by serial dilutions (1:1) of the compounds. […] Reagent blanks, containing media plus colorimetric reagent without cells were run on each plate. Blank values were subtracted from test values and were routinely 5-10% of uninhibited control values. Plates were incubated 72 h, and living cell number was determined by AlamarBlue® and Hexosaminidase test. The advantages of using those assays are that both can be done in the same microwell plate. AlamarBlue® assay: plates were incubated 72 h and living cell number was determined by AlamarBlue (Biosource DAL1100). After 4 h incubation at 37° C., relative fluorescent intensity, which correlates with the number of living cells, was read in a Cytofluor plate reader (Millipore) at 535/590 nm (Excitation/emission). The hexosaminidase activity was measured according to the following protocol: the media was removed and cells were washed once with PBS.
(§7) Data analysis was done by calculating the percentage of cell viability normalized in front of negative control values, which were considered as a 100%. The curve was adjusted using a sigmoidal dose-response (variable slope) equation and EC50 values were obtained from the equation
(§8) where, X is the logarithm of concentration. Y is the response. Bottom is the Y value at the bottom plateau Top is the Y value at the top plateau LogEC50 is the X value when the response is halfway between Bottom and Top. With different kinds of variables, this variable is sometimes called ED50 (effective dose, 50%), or IC50 (inhibitory concentration, 50%, used when the curve goes downhill).

MCF-7 = test: Cancer cell growth inhibition, MCF-7; assay type: cell-based; conditions: Homo sapiens, MCF7; Breast, MCF-7, cell viability, 72 h
Method: as §1, §2, §3, §4, §5, §6, §7, §8

MiaPaCa-2 = test: Cancer cell growth inhibition, MiaPaCa-2; assay type: cell-based; conditions: Homo sapiens, MIA PaCa-2; Pancreatic, MiaPaCa-2, cell viability, 72 h
Method: as §1, §2, §3, §4, §5, §6, §7, §8

CCFR-CEM = test: Cancer cell growth inhibition, CCFR-CEM; assay type: cell-based; conditions: Hematologic, cell viability, 72 h
Method: as §1, §2, §3, §4, §5, §6, §7, §8

Daoy = test: Cancer cell growth inhibition, Daoy; assay type: cell-based; conditions: Homo sapiens, Brain, cell viability, 72 h
Method: as §1, §2, §3, §4, §5, §6, §7, §8

Jurkat = test: Cancer cell growth inhibition, Jurkat; assay type: cell-based; conditions: Homo sapiens, Hematologic, cell viability, 72 h
Method: as §1, §2, §3, §4, §5, §6, §7, §8

T47D = test: Cancer cell growth inhibition, T47D; assay type: cell-based; conditions: Homo sapiens, Breast, cell viability, 72 h
Method: as §1, §2, §3, §4, §5, §6, §7, §8

A-431 = test: Cancer cell growth inhibition, A-431; assay type: cell-based; conditions: Homo sapiens; Epidermoid, A-431, cell viability, 72 h
Method: as §1, §2, §3, §4, §5, §6, §7, §8

RPMI-8226 = test: Cancer cell growth inhibition, RPMI-8226; assay type: cell-based; conditions: Homo sapiens; Multiple Myelome, RPMI-8226, cell viability, 72 h
Method: as §1, §2, §3, §4, §5, §6, §7, §8

NCI-H358 = test: Cancer cell growth inhibition, NCI-H358; assay type: cell-based; conditions: Homo sapiens; Lung, NCI-H358, cell viability, 72 h
Method: as §1, §2, §3, §4, §5, §6, §7, §8

U-87MG = test: Cancer cell growth inhibition, U-87MG; assay type: cell-based; conditions: Homo sapiens, Brain, cell viability, 72 h
Method: as §1, §2, §3, §4, §5, §6, §7, §8

SK-HEP-1 = test: Cancer cell growth inhibition, SK-HEP-1; assay type: cell-based; conditions: Homo sapiens, SK-HEP1; Liver, SK-HEP-1, cell viability, 72 h
Method: as §1, §2, §3, §4, §5
as §6, with “PBS. […]” for “PBS.”

NCI-H1975 = test: Cancer cell growth inhibition, NCI-H1975; assay type: cell-based; conditions: Homo sapiens; Lung, NCI-H1975, cell viability, 72 h
Method: as §1, §2, §3, §4, §5, §6, §7, §8

HCT-116 = test: Cancer cell growth inhibition, HCT-116; assay type: cell-based; conditions: Homo sapiens; Colorectal, HCT-116, cell viability, 72 h
Method: as §1, §2, §3, §4, §5, §6, §7, §8

T1 sequence (P26358 2-1632 isoform P26358-2): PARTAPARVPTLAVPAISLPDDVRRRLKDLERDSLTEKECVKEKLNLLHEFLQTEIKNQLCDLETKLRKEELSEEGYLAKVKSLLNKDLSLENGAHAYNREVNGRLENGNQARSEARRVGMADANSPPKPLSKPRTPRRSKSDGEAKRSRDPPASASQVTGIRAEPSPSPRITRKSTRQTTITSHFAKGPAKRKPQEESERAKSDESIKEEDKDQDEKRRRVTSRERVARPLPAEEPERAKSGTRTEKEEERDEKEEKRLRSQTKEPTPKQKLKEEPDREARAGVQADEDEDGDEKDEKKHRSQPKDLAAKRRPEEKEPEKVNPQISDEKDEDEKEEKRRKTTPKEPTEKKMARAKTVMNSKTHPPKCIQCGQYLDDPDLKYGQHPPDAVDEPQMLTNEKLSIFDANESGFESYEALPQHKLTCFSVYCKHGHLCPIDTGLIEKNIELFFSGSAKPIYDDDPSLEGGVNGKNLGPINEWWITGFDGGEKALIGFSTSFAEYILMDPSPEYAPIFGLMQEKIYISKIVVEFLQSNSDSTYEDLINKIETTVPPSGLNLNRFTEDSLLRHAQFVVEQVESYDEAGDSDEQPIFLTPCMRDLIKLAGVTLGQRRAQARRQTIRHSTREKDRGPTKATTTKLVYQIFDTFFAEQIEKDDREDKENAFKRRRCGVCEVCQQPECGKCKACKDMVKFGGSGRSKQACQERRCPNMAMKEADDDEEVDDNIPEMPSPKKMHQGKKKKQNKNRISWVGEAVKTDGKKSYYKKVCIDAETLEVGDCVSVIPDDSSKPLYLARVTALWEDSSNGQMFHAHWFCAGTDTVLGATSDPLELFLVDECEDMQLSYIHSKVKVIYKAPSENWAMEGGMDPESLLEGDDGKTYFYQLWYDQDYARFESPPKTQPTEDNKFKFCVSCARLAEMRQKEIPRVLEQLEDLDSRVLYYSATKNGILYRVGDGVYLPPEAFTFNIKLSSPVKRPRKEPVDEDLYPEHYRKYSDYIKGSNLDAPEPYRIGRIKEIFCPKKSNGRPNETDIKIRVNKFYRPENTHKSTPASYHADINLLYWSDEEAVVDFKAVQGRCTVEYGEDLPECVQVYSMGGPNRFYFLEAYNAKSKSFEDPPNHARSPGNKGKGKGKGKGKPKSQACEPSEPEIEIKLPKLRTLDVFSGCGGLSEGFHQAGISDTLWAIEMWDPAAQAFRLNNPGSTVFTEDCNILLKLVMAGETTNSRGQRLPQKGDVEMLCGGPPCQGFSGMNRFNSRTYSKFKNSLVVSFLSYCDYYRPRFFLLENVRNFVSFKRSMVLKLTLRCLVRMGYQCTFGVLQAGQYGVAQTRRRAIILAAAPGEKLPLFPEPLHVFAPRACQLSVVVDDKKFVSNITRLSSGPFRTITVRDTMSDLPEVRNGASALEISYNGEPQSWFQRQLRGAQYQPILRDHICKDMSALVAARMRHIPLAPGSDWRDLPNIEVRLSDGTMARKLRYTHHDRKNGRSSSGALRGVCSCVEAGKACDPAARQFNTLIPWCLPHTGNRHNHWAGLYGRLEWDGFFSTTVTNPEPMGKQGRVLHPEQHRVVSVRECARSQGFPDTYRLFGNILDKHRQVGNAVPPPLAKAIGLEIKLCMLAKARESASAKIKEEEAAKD

IC50 (Human DNMT1) [µM] | Structure (SMILES) | further results
241 | O=C(Cn1cc(-c2ccc(O)cc2)c2ccccc21)c1ccc(O)cc1 [Example 20, 1-(4-hydroxyphenyl)-2-[3-(4-hydroxyphenyl)-1H-indol-1-yl]ethanone] | –
73.1 | COc1ccc2c(-c3ccc(O)cc3)cn(CC(=O)c3ccc(O)cc3)c2c1 [Example 1, 1-(4-hydroxyphenyl)-2-[3-(4-hydroxyphenyl)-6-methoxy-1H-indol-1-yl]ethanone] | –
576 | COc1cc2c(cc1O)c(-c1ccc(O)cc1)cn2CC(=O)c1ccc(O)cc1 [Example 15, 2-[5-hydroxy-3-(4-hydroxyphenyl)-6-methoxy-1H-indol-1-yl]-1-(4-hydroxyphenyl)ethanone] | –
32.9 | COc1cc(OC)c2c(-c3ccccc3O)cn(CC(=O)c3ccccc3O)c2c1 [Example 7, 1-(2-hydroxyphenyl)-2-[3-(2-hydroxyphenyl)-4,6-dimethoxy-1H-indol-1-yl]ethanone] | –
56.7 | COc1ccc2c(-c3ccccc3O)cn(CC(=O)c3ccccc3O)c2c1 [Example 3, 1-(2-hydroxyphenyl)-2-[3-(2-hydroxyphenyl)-6-methoxy-1H-indol-1-yl]ethanone] | –
59.1 | O=C(Cn1cc(-c2ccc(O)cc2)c2cc(F)ccc21)c1ccc(O)cc1 [Example 19, 2-[5-fluoro-3-(4-hydroxyphenyl)-1H-indol-1-yl]-1-(4-hydroxyphenyl) ethanone] | –
3.53 | COc1ccc2c(-c3ccc(O)c(O)c3O)cn(CC(=O)c3ccc(O)c(O)c3O)c2c1 [Example 5, 2-[6-methoxy-3-(2,3,4-trihydroxyphenyl)-1H-indol-1-yl]-1-(2,3,4-trihydroxyphenyl) ethanone] | –
22.5 | COc1cc(OC)c2c(-c3ccc(O)cc3)cn(C/C(=N\O)c3ccc(O)cc3)c2c1 [Example 22, (Z)-1-(4-hydroxyphenyl)-2-[3-(4-hydroxyphenyl)-4,6-dimethoxy-1H-indol-1-yl]ethanone oxime] | –
50.9 | O=C(Cn1cc(-c2ccc(O)cc2)c2ccc(O)cc21)c1ccc(O)cc1 [Example 17, 2-[6-hydroxy-3-(4-hydroxyphenyl)-1H-indol-1-yl]-1-(4-hydroxyphenyl) ethanone] | –
44.6 | COc1cc(OC)c2c(-c3cc(O)cc(O)c3)cn(CC(=O)c3cc(O)cc(O)c3)c2c1 [Example 10, 1-(3,5-dihydroxyphenyl)-2-[3-(3,5-dihydroxyphenyl)-4,6-dimethoxy-1H-indol-1-yl]ethanone] | –
30.6 | COc1ccc2c(-c3cccc(O)c3)cn(CC(=O)c3cccc(O)c3)c2c1 [Example 2, 1-(3-hydroxyphenyl)-2-[3-(3-hydroxyphenyl)-6-methoxy-1H-indol-1-yl]ethanone] | –
104 | COc1cc(OC)c2c(-c3ccc(F)cc3)cn(CC(=O)c3ccc(F)cc3)c2c1 [Example 12, 1-(4-fluorophenyl)-2-[3-(4-fluorophenyl)-4,6-dimethoxy-1H-indol-1-yl]ethanone] | –
181 | COc1cc(OC)c2c(-c3ccc(O)cc3O)cn(CC(=O)c3ccc(O)cc3O)c2c1 [Example 9, 1-(2,4-dihydroxyphenyl)-2-[3-(2,4-dihydroxyphenyl)-4,6-dimethoxy-1H-indol-1-yl]ethanone] | –
98.4 | COc1ccc(OC)c2c1c(-c1ccc(O)cc1)cn2CC(=O)c1ccc(O)cc1 [Example 13, 1-(4-hydroxyphenyl)-2-[3-(4-hydroxyphenyl)-4,7-dimethoxy-1H-indol-1-yl]ethanone] | –
19.5 | COc1ccc2c(-c3ccc(O)cc3)cn(CC(=O)c3ccc(O)cc3)c2c1 [Example 25, potassium phenoxide salt of 1-(4-hydroxyphenyl)-2-[3-(4-hydroxyphenyl)-6-methoxy-1H-indol-1-yl]ethanone] | –
32.9 | O=C(Cn1cc(-c2ccc(O)cc2)c2cc(O)ccc21)c1ccc(O)cc1 [Example 18, 2-[5-hydroxy-3-(4-hydroxyphenyl)-1H-indol-1-yl]-1-(4-hydroxyphenyl) ethanone] | –
15.6 | COc1cc(OC)cc(N(CC(=O)c2ccc(O)c(O)c2O)CC(=O)c2ccc(O)c(O)c2O)c1 [Example 24, 2,2′-[(3,5-dimethoxyphenyl)azanediyl]-bis[1-(2,3,4-trihydroxyphenyl)ethanone]] | –
27.4 | COc1cccc(N(CC(=O)c2ccc(O)c(O)c2O)CC(=O)c2ccc(O)c(O)c2O)c1 [Example 23, 2,2′-[(3-methoxyphenyl)azanediyl]-bis[1-(2,3,4-trihydroxyphenyl)ethanone]] | –
43.3 | COc1cc2c(-c3ccc(O)cc3)cn(CC(=O)c3ccc(O)cc3)c2cc1OC [Example 14, 1-(4-hydroxyphenyl)-2-[3-(4-hydroxyphenyl)-5,6-dimethoxy-1H-indol-1-yl]ethanone] | –
46.8 | COc1cc(OC)c2c(-c3ccc(O)cc3)cn(CC(=O)c3ccc(O)cc3)c2c1 [Example 27, calcium phenoxide salt of 1-(4-hydroxyphenyl)-2-[3-(4-hydroxyphenyl)-4,6-dimethoxy-1H-indol-1-yl]ethanone] | –
104 | COc1cc(OC)c2c(-c3ccc(O)cc3)cn(C/C(=N/O)c3ccc(O)cc3)c2c1 [Example 21, (E)-1-(4-Hydroxyphenyl)-2-[3-(4-hydroxyphenyl)-4,6-dimethoxy-1H-indol-1-yl]ethanone oxime] | –
– | COc1cc(OC)c2c(-c3ccc(OC(C)=O)c(OC(C)=O)c3)cn(CC(=O)c3ccc(OC(C)=O)c(OC(C)=O)c3)c2c1 [Example 30, 4-{1-[2-(3,4-diacetoxyphenyl)-2-oxoethyl]-4,6-dimethoxy-1H-indol-3-yl}-1,2-phenylene diacetate] | EC50 (MDA-MB-435): 23 µM; EC50 (MCF-7): 88 µM; EC50 (MiaPaCa-2): 55 µM; EC50 (CCFR-CEM): 40 µM; EC50 (Daoy): 50 µM; EC50 (Jurkat): 49 µM; EC50 (T47D): 47 µM; EC50 (A-431): 88 µM; EC50 (RPMI-8226): 36 µM; EC50 (NCI-H358): 53 µM; EC50 (U-87MG): 75 µM; EC50 (SK-HEP-1): 39 µM; EC50 (NCI-H1975): 47 µM; EC50 (HCT-116): 64 µM
40.4 | COc1cc(OC)c2c(-c3ccc(O)cc3)cn(CC(=O)c3ccc(O)cc3)c2c1 [Example 26, potassium phenoxide salt of 1-(4-hydroxyphenyl)-2-[3-(4-hydroxyphenyl)-4,6-dimethoxy-1H-indol-1-yl]ethanone] | –
